Earlier results in US20100136097A1, “Systems for modulating inflammation” (Searete LLC, a limited liability corporation of the State …, priority 2008, published 2010).

Assays:
[1] = mice
[2] = tested on: proteasomal activity in cultured breast cancer cells; details: through binding of copper
[3] = single agent, infused at 400 mg over one hour
[4] = tested on: Src family kinases (Src, Lck, Yes, Fyn); details: at nanomolar concentrations

In the case of `Cl.Cl.Nc1ccccc1Oc1ccc2c(N)nsc2c1` [Example M62812, 3-amino-6-(2-aminophenoxy)-1,2-benzisothiazole dihydrochloride], the “prevention of lethal septic shock” value [1] is listed as “prevents lethal septic shock”.

In the case of `CCN(CC)C(=S)SSC(=S)N(CC)CC` [Disulfiram, 1-(diethylthiocarbamoyldisulfanyl)-N,N-diethyl-methanethioamide], the proteasomal activity [2] is listed as “inhibits proteasomal activity”.

For `CCN(CC)CCCC(C)Nc1ccnc2cc(Cl)ccc12.O=P(O)(O)O.O=P(O)(O)O` (centres unmarked) [Chloroquine phosphate, 7-chloro-4-[[4-(diethylamino)-1-methylbutyl]amino]quinoline phosphate (1:2)], the tolerability of infusion [3] is given as “without complication”.

In the case of `CCN(CC)CCCC(C)Nc1ccnc2cc(Cl)ccc12` (centres unmarked) [Chloroquine], the “inhibition of CpG-induced Src family kinase activation, or its dependent cellular responses” value (Src family kinase) is given as “does not inhibit”.

For `Cc1nc(Nc2ncc(C(=O)Nc3c(C)cccc3Cl)s2)cc(N2CCN(CCO)CC2)n1.O` [dasatinib, N-(2-chloro-6-methylphenyl)-2-[[6-[4-(2-hydroxyethyl)-1-piperazinyl]-2-methyl-4-pyrimidinyl]amino]-5-thiazolecarboxamide, monohydrate], the “inhibition of Src family kinases (Src, Lck, Yes, Fyn)” value [4] is given as “inhibits”.
